{"source": "patent US4476120A", "about": "“Thiolic derivatives of erythromycin having therapeutic activity, and pharmaceutical compositions containing them” (Sigma Tau Indistrie Farmaceutiche Riunites, p.A, priority 1982, dated 1984)", "key": {"[1]": {"assay": "Histological examination of bronchi after SO2 inhalation", "format": "in vivo, Sprague Dawley male rats", "settings": "oral, 500 mg/kg"}, "Br. abortus SS 7": {"test_system": "Br. abortus SS 7", "format": "cell-based", "settings": "Brain Heart Infusion, estolate and RV11-RV15 previously hydrolized, unit assumed"}, "Br. melitensis SS 19": {"test_system": "Br. melitensis SS 19", "format": "cell-based", "settings": "unit assumed"}, "N. meningitidis SS 04": {"test_system": "N. meningitidis SS 04", "format": "cell-based", "settings": "Brain Heart Infusion, estolate and RV11-RV15 previously hydrolized, unit assumed"}, "S. heidelberg SS 18": {"test_system": "S. heidelberg SS 18", "format": "cell-based", "settings": "Brain Heart Infusion, estolate and RV11-RV15 previously hydrolized, unit assumed"}, "S. infantis SS 08": {"test_system": "S. infantis SS 08", "format": "cell-based", "settings": "Brain Heart Infusion, estolate and RV11-RV15 previously hydrolized, unit assumed"}, "Staph. aureus SS 07 [2]": {"test_system": "Staph. aureus SS 07", "format": "cell-based", "settings": "Brain Heart Infusion, estolate and RV11-RV15 previously hydrolized, unit assumed"}, "[3]": {"test_system": "Strept. haemolyticus SS 17", "format": "cell-based", "settings": "Brain Heart Infusion, estolate and RV11-RV15 previously hydrolized, unit assumed"}, "Citrobacter SS 05": {"test_system": "Citrobacter SS 05", "format": "cell-based", "settings": "Brain Heart Infusion, estolate and RV11-RV15 previously hydrolized, unit assumed"}, "Kl. aerogenes SS 71": {"test_system": "Kl. aerogenes SS 71", "format": "cell-based", "settings": "Brain Heart Infusion, estolate and RV11-RV15 previously hydrolized, unit assumed"}, "E. coli SS 05": {"test_system": "E. coli SS 05", "format": "cell-based", "settings": "Brain Heart Infusion, estolate and RV11-RV15 previously hydrolized, unit assumed"}, "E. aerogenes SS 011": {"test_system": "E. aerogenes SS 011", "format": "cell-based", "settings": "Brain Heart Infusion, estolate and RV11-RV15 previously hydrolized, unit assumed"}, "H. tubercolosis SS 03": {"test_system": "H. tubercolosis SS 03", "format": "cell-based", "settings": "Brain Heart Infusion, estolate and RV11-RV15 previously hydrolized, unit assumed", "text": "(§1) In the following table I the MIC/ml values are indicated corresponding to the lowest concentration capable of inducing a complete inhibition of the bacterial development."}, "Kl. pneumoniae SS 04": {"test_system": "Kl. pneumoniae SS 04", "format": "cell-based", "settings": "Brain Heart Infusion, estolate and RV11-RV15 previously hydrolized, unit assumed", "text": "as §1"}, "Ps. aeruginosa SS 10": {"test_system": "Ps. aeruginosa SS 10", "format": "cell-based", "settings": "Brain Heart Infusion, estolate and RV11-RV15 previously hydrolized, unit assumed"}, "Pr. vulgaris SS 10": {"test_system": "Pr. vulgaris SS 10", "format": "cell-based", "settings": "Brain Heart Infusion, estolate and RV11-RV15 previously hydrolized, unit assumed"}, "B. subtilis ATCC 6633": {"test_system": "B. subtilis ATCC 6633", "format": "cell-based", "settings": "Brain Heart Infusion, estolate and RV11-RV15 previously hydrolized, unit assumed"}, "C. diphtheriae SS 19": {"test_system": "C. diphtheriae SS 19", "format": "cell-based", "settings": "Brain Heart Infusion, estolate and RV11-RV15 previously hydrolized, unit assumed"}, "Staph. aureus SS 07 [4]": {"test_system": "Staph. aureus SS 07", "assay": "Experimental infection induced by Staph. aureus SS 07", "format": "in vivo, Swiss white mice", "settings": "os; Staph. aureus SS 07; mg/kg of erythromycin; survival after 7 days; 10080 min", "how_it_was_run": "(§2)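 Swiss mice of 20 g infected parenterally with lethal amounts of Staph. aureus SS 07 or D. pneumoniae SS 23. Antibiotics were given at infection and again 6 and 24 h later. ED50 was derived from survival at 7 days.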"}, "Acute toxicity": {"assay": "Acute toxicity", "format": "in vivo", "settings": "mouse, in vivo, po, 14400 min", "experimental": "The acute toxicity was assessed in Swiss white mice by oral and intravenous route. The LD50 values have been calculated by the methods of Probits, starting from the mortality recorded 10 days after the treatment."}, "Sr. marcescens SS 03": {"test_system": "Sr. marcescens SS 03", "format": "cell-based", "settings": "Brain Heart Infusion, estolate and RV11-RV15 previously hydrolized, unit assumed"}, "C. albicans SS 04": {"test_system": "C. albicans SS 04", "format": "cell-based", "settings": "Brain Heart Infusion, estolate and RV11-RV15 previously hydrolized, unit assumed"}, "E. cloacae SS 07": {"test_system": "E. cloacae SS 07", "format": "cell-based", "settings": "Brain Heart Infusion, estolate and RV11-RV15 previously hydrolized, unit assumed"}, "[5]": {"assay": "Mucolytic activity: obstruction of the bronchial tract after SO2 inhalation", "format": "in vivo, Sprague Dawley male rats", "settings": "oral, 500 mg/kg; SO2, 15 days"}, "Cl. tetani SS 17": {"test_system": "Cl. tetani SS 17", "format": "cell-based", "settings": "Brain Heart Infusion, estolate and RV11-RV15 previously hydrolized, unit assumed"}, "E. coli SS 06": {"test_system": "E. coli SS 06", "format": "cell-based", "settings": "Brain Heart Infusion, estolate and RV11-RV15 previously hydrolized, unit assumed"}, "Staph. albus SS 04": {"test_system": "Staph. albus SS 04", "format": "cell-based", "settings": "Brain Heart Infusion, estolate and RV11-RV15 previously hydrolized, unit assumed"}, "N. gonorreae SS 27": {"test_system": "N. gonorreae SS 27", "format": "cell-based", "settings": "Brain Heart Infusion, estolate and RV11-RV15 previously hydrolized, unit assumed"}, "Pr. mirabilis SS 09": {"test_system": "Pr. mirabilis SS 09", "format": "cell-based", "settings": "Brain Heart Infusion, estolate and RV11-RV15 previously hydrolized, unit assumed"}, "[6]": {"test_system": "Strept. haemolyticus SS 18", "format": "cell-based", "settings": "Brain Heart Infusion, estolate and RV11-RV15 previously hydrolized, unit assumed"}, "E. coli SS 04": {"test_system": "E. coli SS 04", "format": "cell-based", "settings": "Brain Heart Infusion, estolate and RV11-RV15 previously hydrolized, unit assumed"}, "S. lutea ATCC 9341": {"test_system": "S. lutea ATCC 9341", "format": "cell-based", "settings": "Brain Heart Infusion, estolate and RV11-RV15 previously hydrolized, unit assumed"}, "B. subtilis SS 127": {"test_system": "B. subtilis SS 127", "format": "cell-based", "settings": "Brain Heart Infusion, estolate and RV11-RV15 previously hydrolized, unit assumed"}, "Staph. aureus SS 08": {"test_system": "Staph. aureus SS 08", "format": "cell-based", "settings": "Brain Heart Infusion, estolate and RV11-RV15 previously hydrolized, unit assumed"}, "Staph. aureus SS 10": {"test_system": "Staph. aureus SS 10", "format": "cell-based", "settings": "Brain Heart Infusion, estolate and RV11-RV15 previously hydrolized, unit assumed"}, "H. influentiae SS 02": {"test_system": "H. influentiae SS 02", "format": "cell-based", "settings": "Brain Heart Infusion, estolate and RV11-RV15 previously hydrolized, unit assumed"}, "E. coli SS 07": {"test_system": "E. coli SS 07", "format": "cell-based", "settings": "Brain Heart Infusion, estolate and RV11-RV15 previously hydrolized, unit assumed"}, "Staph. aureus SS 09": {"test_system": "Staph. aureus SS 09", "format": "cell-based", "settings": "Brain Heart Infusion, estolate and RV11-RV15 previously hydrolized, unit assumed"}, "D. pneumoniae SS 23 [7]": {"test_system": "D. pneumoniae SS 23", "assay": "Experimental infection induced by D. pneumoniae SS 23", "format": "in vivo, Swiss white mice", "settings": "os; D. pneumoniae SS 23; mg/kg of erythromycin; survival after 7 days; 10080 min", "how_it_was_run": "as §2"}, "Strept. faecalis SS 19": {"test_system": "Strept. faecalis SS 19", "format": "cell-based", "settings": "Brain Heart Infusion, estolate and RV11-RV15 previously hydrolized, unit assumed"}, "D. pneumoniae SS 23 [8]": {"test_system": "D. pneumoniae SS 23", "format": "cell-based", "settings": "Brain Heart Infusion, estolate and RV11-RV15 previously hydrolized, unit assumed"}, "B. cereus ATCC 11778": {"test_system": "B. cereus ATCC 11778", "format": "cell-based", "settings": "Brain Heart Infusion, estolate and RV11-RV15 previously hydrolized, unit assumed"}}, "data": [{"smiles": "CCC(=O)O[C@H]1[C@H](O[C@@H]2[C@@H](C)[C@H](O[C@H]3C[C@@](C)(OC)[C@@H](O)[C@H](C)O3)[C@@H](C)C(=O)O[C@H](CC)[C@@](C)(O)[C@H](O)[C@@H](C)C(=O)[C@H](C)C[C@@]2(C)O)O[C@H](C)C[C@@H]1N(C)C", "note": "[RV15, erythromycin monopropionate N-acetylcysteinate]", "values": [{"measurement": "histological appearance of non obstructed bronchi", "setting": "[1]; free non obstructed", "value": "presence of bronchi having almost normal appearance"}, {"measurement": "histological appearance of obstructed bronchial tract", "setting": "[1]; obstructed", "value": "fully like that of the control animals"}, {"measurement": "MIC", "setting": "Br. abortus SS 7", "value": 6, "unit": "µg/mL"}, {"measurement": "MIC", "setting": "Br. melitensis SS 19", "value": 3, "unit": "µg/mL"}, {"measurement": "MIC", "setting": "N. meningitidis SS 04", "value": 0.8, "unit": "µg/mL"}, {"measurement": "MIC", "setting": "S. heidelberg SS 18", "value": 100, "unit": "µg/mL"}, {"measurement": "MIC", "setting": "S. infantis SS 08", "value": 100, "unit": "µg/mL"}, {"measurement": "MIC", "setting": "Staph. aureus SS 07 [2]", "value": 0.025, "unit": "µg/mL"}, {"measurement": "MIC", "setting": "[3]", "value": 1.5, "unit": "µg/mL"}, {"measurement": "MIC", "setting": "Citrobacter SS 05", "value": "> 200", "unit": "µg/mL"}, {"measurement": "MIC", "setting": "Kl. aerogenes SS 71", "value": 100, "unit": "µg/mL"}, {"measurement": "MIC", "setting": "E. coli SS 05", "value": 100, "unit": "µg/mL"}, {"measurement": "MIC", "setting": "E. aerogenes SS 011", "value": 50, "unit": "µg/mL"}, {"measurement": "MIC", "setting": "H. tubercolosis SS 03", "value": 50, "unit": "µg/mL"}, {"measurement": "MIC", "setting": "Kl. pneumoniae SS 04", "value": 100, "unit": "µg/mL"}, {"measurement": "MIC", "setting": "Ps. aeruginosa SS 10", "value": 100, "unit": "µg/mL"}, {"measurement": "MIC", "setting": "Pr. vulgaris SS 10", "value": "> 200", "unit": "µg/mL"}, {"measurement": "MIC", "setting": "B. subtilis ATCC 6633", "value": 0.01, "unit": "µg/mL"}, {"measurement": "MIC", "setting": "C. diphtheriae SS 19", "value": 0.02, "unit": "µg/mL"}, {"measurement": "ED50 (reliability limits)", "setting": "Staph. aureus SS 07 [4]", "value": "2.10 (2.49-1.92) mg/kg"}, {"measurement": "LD50 (reliability limits)", "setting": "Acute toxicity", "value": 3000, "unit": "mg·kg"}, {"measurement": "MIC", "setting": "Sr. marcescens SS 03", "value": 200, "unit": "µg/mL"}, {"measurement": "MIC", "setting": "C. albicans SS 04", "value": 200, "unit": "µg/mL"}, {"measurement": "MIC", "setting": "E. cloacae SS 07", "value": "> 200", "unit": "µg/mL"}, {"measurement": "Partial obstruction (% incidence)", "setting": "[5]", "value": 6.66, "unit": "%"}, {"measurement": "Total obstruction, compact plug (% incidence)", "setting": "[5]", "value": 20, "unit": "%"}, {"measurement": "Total obstruction, nodular mass (% incidence)", "setting": "[5]", "value": 13.33, "unit": "%"}, {"measurement": "Total obstruction, pimply mass (% incidence)", "setting": "[5]", "value": 6.66, "unit": "%"}, {"measurement": "MIC", "setting": "Cl. tetani SS 17", "value": 0.2, "unit": "µg/mL"}, {"measurement": "MIC", "setting": "E. coli SS 06", "value": 25, "unit": "µg/mL"}, {"measurement": "MIC", "setting": "Staph. albus SS 04", "value": 0.05, "unit": "µg/mL"}, {"measurement": "MIC", "setting": "N. gonorreae SS 27", "value": 0.8, "unit": "µg/mL"}, {"measurement": "MIC", "setting": "Pr. mirabilis SS 09", "value": "> 200", "unit": "µg/mL"}, {"measurement": "MIC", "setting": "[6]", "value": 3, "unit": "µg/mL"}, {"measurement": "MIC", "setting": "E. coli SS 04", "value": 50, "unit": "µg/mL"}, {"measurement": "MIC", "setting": "S. lutea ATCC 9341", "value": 0.01, "unit": "µg/mL"}, {"measurement": "MIC", "setting": "B. subtilis SS 127", "value": 0.025, "unit": "µg/mL"}, {"measurement": "MIC", "setting": "Staph. aureus SS 08", "value": 0.025, "unit": "µg/mL"}, {"measurement": "MIC", "setting": "Staph. aureus SS 10", "value": 0.05, "unit": "µg/mL"}, {"measurement": "MIC", "setting": "H. influentiae SS 02", "value": 1.5, "unit": "µg/mL"}, {"measurement": "MIC", "setting": "E. coli SS 07", "value": 50, "unit": "µg/mL"}, {"measurement": "MIC", "setting": "Staph. aureus SS 09", "value": 0.05, "unit": "µg/mL"}, {"measurement": "ED50 (reliability limits)", "setting": "D. pneumoniae SS 23 [7]", "value": "110.90 (135.28-90.92) mg/kg"}, {"measurement": "MIC", "setting": "Strept. faecalis SS 19", "value": 0.05, "unit": "µg/mL"}, {"measurement": "MIC", "setting": "D. pneumoniae SS 23 [8]", "value": 0.05, "unit": "µg/mL"}, {"measurement": "MIC", "setting": "B. cereus ATCC 11778", "value": 0.4, "unit": "µg/mL"}]}]}
